Assay results reported in US10399932B2, “Inhibitors of indoleamine-2,3-dioxygenase for the treatment of cancer” (BRISTOL-MYERS SQUIBB COMPANY, priority 2015, dated 2019).

Target: human IDO1 (Homo sapiens, UniProt P14902)
Test: Assessment of human IDO-1 inhibitory activity in HEK cells (human IDO1/HEK293 cells, Ehrlich reagent, absorbance at 490 nm)
Assay type: cell-based
Design: expressed in transfected cells
Conditions: In Vitro Potency in the HEK Human IDO-1 Cellular Assay
Procedure: Exemplary compounds were tested for inhibition of IDO activity.
HEK293 cells were transfected with a pCDNA-based mammalian expression vector harboring human IDO1 cDNA (NM 002164.2) by electroporation. They were cultured in medium (DMEM with 10% FBS) containing 1 mg/ml G418 for two weeks. Clones of HEK293 cells that stably expressed human IDO1 protein were selected and expanded for IDO inhibition assay.
The human IDO1/HEK293 cells were seeded at 10,000 cells per 50 μL per well with RPMI/phenol red free media contains 10% FBS in a 384-well black wall clear bottom tissue culture plate (Matrix Technologies LLC) 100 nL of certain concentration of compound was then added to each well using ECHO liquid handling systems. The cells were incubated for 20 hours in 37° C. incubator with 5% CO2.
The compound treatments were stopped by adding trichloroacetic acid (Sigma-Aldrich) to a final concentration at 0.2%. The cell plate was further incubated at 50° C. for 30 minute. The equal volume supernatant (20 μL) and 0.2% (w/v) Ehrlich reagent (4-dimethylaminobenzaldehyde, Sigma-Aldrich) in glacial acetic acid were mixed in a new clear bottom 384-well plate. This plate was then incubated at room temperature for 30 minute. The absorbance at 490 nm was measured on Envision plate reader.
Compound IC50 values were calculated using the counts of 500 nM of a reference standard treatment as one hundred percent inhibition, and counts of no compound but DMSO treatment as zero percent inhibition.

Chain of human IDO1 (P14902 whole entry): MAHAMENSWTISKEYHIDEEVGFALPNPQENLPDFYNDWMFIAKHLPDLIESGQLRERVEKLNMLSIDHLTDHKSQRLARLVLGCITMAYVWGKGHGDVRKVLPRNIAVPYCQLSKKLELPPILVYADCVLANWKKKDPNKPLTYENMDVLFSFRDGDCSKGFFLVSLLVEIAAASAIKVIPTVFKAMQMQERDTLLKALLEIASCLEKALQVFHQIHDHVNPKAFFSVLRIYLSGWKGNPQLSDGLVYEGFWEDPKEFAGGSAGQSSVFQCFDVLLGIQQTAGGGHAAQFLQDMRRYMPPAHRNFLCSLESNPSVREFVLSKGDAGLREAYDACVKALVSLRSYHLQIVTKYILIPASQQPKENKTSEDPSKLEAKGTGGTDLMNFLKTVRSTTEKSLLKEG

IC50	SMILES
> 0.05 µM	CCC(CC(=O)O)c1cc(F)c(N(CC(C)C)CC(C)C)c(Nc2ccc(OCC(F)(F)F)cc2)c1 (single isomer, unassigned) [Example 114, 3-(4-(diisobutylamino)-3-fluoro-5-((4-(2,2,2-trifluoroethoxy)phenyl)amino)phenyl)pentanoic acid]
< 0.005 µM	CCC(CC(=O)O)c1cc(NC(=O)Nc2ccc(C)cc2)c(N(CC(C)C)CC(C)C)cc1F (single isomer, unassigned) [Example 1130, 3-(4-(Diisobutylamino)-2-fluoro-5-(3-(p-tolyl)ureido)phenyl)pentanoic acid]
> 0.05 µM	CCN(c1ccc(C(CC(=O)O)c2ccccc2)cc1Nc1ccc2nc(C)sc2c1)C1CCOCC1 (single isomer, unassigned) [Example 589, 3-(4-(ethyl(tetrahydro-2H-pyran-4-yl)amino)-3-((2-methylbenzo[d]thiazol-6-yl)amino)phenyl)-3-phenylpropanoic acid]
< 0.005 µM	CCC(CC(=O)O)c1ccc(N(CC(C)C)C2CCCCC2)c(Nc2ccc(F)c(F)c2)c1 (single isomer, unassigned) [Example 306, 3-(4-(cyclohexyl(isobutyl)amino)-3-((3,4-difluorophenyl)amino)phenyl)pentanoic acid]
< 0.005 µM	COCC(CC(=O)O)c1cc(F)c(N(CC(C)C)C2CCCCC2)c(NC(=O)Nc2ccc(C)cc2)c1 (single isomer, unassigned) [Example 1161, 3-(4-(cyclohexyl(isobutyl)amino)-3-fluoro-5-(3-(p-tolyl)ureido)phenyl)-4-methoxybutanoic acid]
< 0.05 µM	CCOc1ccc(CC(=O)Nc2cc(C(COC)CC(=O)O)cc(F)c2N(CC(C)C)CC(C)C)cc1 (single isomer, unassigned) [Example 1193, 3-(4-(Diisobutylamino)-3-(2-(4-ethoxyphenyl)acetamido)-5-fluorophenyl)-4-methoxybutanoic acid]
> 0.05 µM	Cc1nc2ccc(Nc3cc(C(CC(=O)O)c4ccccc4)cc(F)c3N(CC(C)C)CC(C)C)cc2s1 (single isomer, unassigned) [Example 132, 3-(4-(diisobutylamino)-3-fluoro-5-((2-methylbenzo[d]thiazol-6-yl)amino)phenyl)-3-phenylpropanoic acid]
> 0.05 µM	CCC(CC(=O)O)c1cc(F)c(N(CC(C)C)CC(C)C)c(Nc2ccnc(N3CCOCC3)n2)c1 (single isomer, unassigned) [Example 121, 3-(4-(diisobutylamino)-3-fluoro-5-((2-morpholinopyrimidin-4-yl)amino)phenyl) pentanoic acid]
> 0.05 µM	CCC(CC(=O)O)c1cc(F)c(N(CC(C)C)CC(C)C)c(Nc2ccc3nc(C)sc3c2)c1 (single isomer, unassigned) [Example 111, 3-(4-(diisobutylamino)-3-fluoro-5-((2-methylbenzo [d]thiazol-6-yl)amino)phenyl)pentanoic acid]
< 0.05 µM	CCc1ccc(Nc2cc(C(CC)CC(=O)O)cc(F)c2N(CC(C)C)CC(C)C)cc1 (single isomer, unassigned) [Example 112, 3-(4-(diisobutylamino)-3-((4-ethylphenyl)amino)-5-fluorophenyl)pentanoic acid]

More lines, now with the values behind:

SMILES	IC50
COCC(CC(=O)O)c1ccc(N(CC(C)C)C2CCOCC2)c(NC(=O)Nc2ccc(OC(F)(F)F)cc2)c1 (single isomer, unassigned) [Example 1218, 3-(4-(Isobutyl(tetrahydro-2H-pyran-4-yl)amino)-3-(3-(4-(trifluoromethoxy)phenyl)ureido)phenyl)-4-methoxybutanoic acid]	> 0.05 µM
CCC(CC(=O)O)c1ccc(N(CC(C)C)C2CCCCC2)c(Nc2ccc(Cl)c(OCC3CC3)c2)c1 (single isomer, unassigned) [Example 652, 3-(3-((4-chloro-3-(cyclopropylmethoxy)phenyl)amino)-4-(cyclohexyl(isobutyl)amino)phenyl)pentanoic acid]	< 0.05 µM
COc1ncc(Nc2cc(C(C)CC(=O)O)ccc2N2CCC[C@H]2C(C)(C)O)cn1 (single isomer, unassigned) [Example 805]	> 0.05 µM
CC(CC(=O)O)c1ccc(N2C[C@@H](C)O[C@@H](C)C2)c(Nc2ccc(C#N)cc2)c1 (single isomer, unassigned) [Example 743]	> 0.05 µM
CCOc1ccc(NC(=O)Nc2cc(C(CC)CC(=O)O)c(F)cc2N(CC(C)C)C2CCCCC2)cc1 (single isomer, unassigned) [Example 1109, 3-(4-(Cyclohexyl(isobutyl)amino)-5-(3-(4-ethoxyphenyl)ureido)-2-fluorophenyl) pentanoic acid]	< 0.005 µM
CCOc1ccc(NC(=O)Nc2cc(C(CC)CC(=O)O)ccc2N2CCC[C@@H]2C(C)(C)O)cc1 (single isomer, unassigned) [Example 778]	> 0.05 µM
CCC(CC(=O)O)c1ccc(N(CC2CC2)C2CCOCC2)c(Nc2ccc3c(c2)OC(F)(F)O3)c1 (single isomer, unassigned) [Example 710, 3-(4-((cyclopropylmethyl)(tetrahydro-2H-pyran-4-yl)amino)-3-((2,2-difluorobenzo[d][1,3]dioxol-5-yl)amino)phenyl)pentanoic acid]	< 0.005 µM
CCC(CC(=O)O)c1ccc(N2CCC[C@H]2C(C)(C)O)c(NC(=O)Nc2ccc(OC)cc2F)c1 (single isomer, unassigned) [Example 830]	> 0.05 µM
COCC(CC(=O)O)c1ccc(N(CC2CC2)C2CCOCC2)c(NC(=O)Nc2ccc(C)cc2)c1 (single isomer, unassigned) [Example 677, 3-(4-((Cyclopropylmethyl)(tetrahydro-2H-pyran-4-yl)amino)-3-(3-(p-tolyl)ureido)phenyl)-4-methoxybutanoic acid]	> 0.05 µM
COCC(CC(=O)O)c1ccc(N(CC(C)C)C2CCOCC2)c(NC(=O)Nc2cc(C)on2)c1 (single isomer, unassigned) [Example 1220, 3-(4-(Isobutyl(tetrahydro-2H-pyran-4-yl)amino)-3-(3-(5-methylisoxazol-3-yl)ureido)phenyl)-4-methoxybutanoic acid]	> 0.05 µM
Cc1ccc(NC(=O)Nc2cc(C(CC(=O)O)C3CC3)ccc2N(CC(C)C)C2CCOCC2)cc1 (single isomer, unassigned) [1202 E2]	< 0.005 µM
CCC(CC(=O)O)c1ccc(N2C[C@@H](C)O[C@@H](C)C2)c(Nc2ccc(F)cc2)c1 (single isomer, unassigned) [Example 759]	> 0.05 µM
COCC(CC(=O)O)c1cc(F)c(N(CC(C)C)C2CCCCC2)c(NC(=O)Nc2ccc(Cl)cc2)c1 (single isomer, unassigned) [Example 1166, 3-(3-(3-(4-chlorophenyl)ureido)-4-(cyclohexyl(isobutyl)amino)-5-fluorophenyl)-4-methoxybutanoic acid]	< 0.005 µM
CCOc1ncc(Nc2cc(C(CC)CC(=O)O)ccc2N(CC)C2CCCOC2)cn1 (single isomer, unassigned) [Example 72, 3-(3-((2-ethoxypyrimidin-5-yl)amino)-4-(ethyl(tetrahydro-2H-pyran-3-yl)amino)phenyl)pentanoic acid]	< 0.005 µM
CC(C)CN(c1ccc(C(CC(=O)O)C2CC2)cc1NC(=O)Nc1cncnc1)C1CCOCC1 (single isomer, unassigned) [Example 1207 Enantiomer 2, 3-Cyclopropyl-3-(4-(isobutyl(tetrahydro-2H-pyran-4-yl)amino)-3-(3-(pyrimidin-5-yl)ureido)phenyl)propanoic acid]	> 0.05 µM
CCN(c1ccc(C(CC(=O)O)c2ccccc2)cc1Nc1ccc(C#N)cc1)C1CCOCC1 (single isomer, unassigned) [Example 591, 3-(3-((4-cyanophenyl)amino)-4-(ethyl(tetrahydro-2H-pyran-4-yl)amino)phenyl)-3-phenylpropanoic acid]	< 0.005 µM
CCN(c1ccc([C@@H](COC)CC(=O)O)cc1Nc1ccc2c(c1)OC(F)(F)O2)C1CCOCC1 (single isomer, unassigned) [Example 378]	< 0.05 µM
COCC(CC(=O)O)c1ccc(N(CC(C)C)C2CCCCC2)c(NC(=O)Nc2ccccc2F)c1 (single isomer, unassigned) [1125 E2]	< 0.005 µM
Cc1cc(CC(=O)Nc2cc(C(CC(=O)O)C3CC3)ccc2N(CC(C)C)C2CCCCC2)no1 (single isomer, unassigned) [Example 1252, 3-(4-(Cyclohexyl(isobutyl)amino)-3-(2-(5-methylisoxazol-3-yl)acetamido)phenyl)-3-cyclopropylpropanoic acid]	< 0.05 µM
CC(C)C(CC(=O)O)c1ccc(N(C)C(C)(C)C)c(Nc2nc3ccccc3o2)c1 (single isomer, unassigned) [Example 1008-2]	> 0.05 µM
CCC(CC(=O)O)c1ccc(N(CC2CC2)C2CCOCC2)c(Nc2ccc(Cl)cc2)c1 (single isomer, unassigned) [Example 708, 3-(3-((4-chlorophenyl)amino)-4-((cyclopropylmethyl)(tetrahydro-2H-pyran-4-yl)amino)phenyl)pentanoic acid]	< 0.005 µM
CCC(CC(=O)O)c1ccc(N2CCOC[C@H]2C(C)C)c(NC(=O)Nc2ccc(C)cc2)c1 (single isomer, unassigned) [Example 907]	> 0.05 µM
